Laboratory results from patent US20020137929A1, “1 - (3-heterocyclylphenyl) isothiourea, -isourea, -guanidine and -amidine herbicidal agents” (Intellectual Property Department, BASF Aktiengesellschaft, priority 1998, published 2002).

How the values were obtained:
CYPIR (Rice Flatsedge) = assay: Postemergence weed control under flooded paddy conditions; type: in vivo, Cyperus iria; details: postemergence weeds, 3-4 weeks after treatment
Method in brief: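 Containers holding 3–5 cm weeds and rice at 1.5–2.5 leaves are flooded to 1.5–3 cm above soil. Compound in 50/50 v/v aqueous/acetone is then added directly to the water, about 0.0313–0.500 kg/ha. Plants are kept in the greenhouse and rated 0–9 visually at 3–4 weeks.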

[1] = system: SAGPY (Arrowhead (Pygmaea)); assay: Preemergence weed control under flooded paddy conditions; type: in vivo, Sagittaria pygmaea; details: rated 3-4 weeks after treatment
Method in brief: (§1)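 Visual injury scored 0-9 against control three to four weeks post-treatment, greenhouse-grown. Application: acetone/water (50/50) solutions dosed directly into flood water (1.5-3 cm over silt loam, planted top 0.5 cm), roughly 0.0313 to 0.500 kg/ha active ingredient.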

[2] = system: IPOHE (Morningglory, Ivyleaf); assay: Preemergence herbicidal evaluation; type: in vivo, Ipomoea hederacea; details: rated 4-5 weeks after treatment
Method in brief: (§2)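 Greenhouse preemergence test: seed-soil mix sown on ~1 inch soil; aqueous acetone spray at equivalent of ~0.0156–0.500 kg/ha; greenhouse-held and watered; scored 0–9 visually at 4–5 weeks.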

[3] = system: GLXMAW (Soybean, Williams); assay: Preemergence herbicidal evaluation; type: in vivo, Glycine max, (L.) Merr. cv Williams; details: rated 4-5 weeks after treatment
Method in brief: as §2

AMBEL (Ragweed, Common) = assay: Postemergence herbicidal evaluation; type: in vivo, Ambrosia artemisifolia; details: postemergence
Method in brief: (§3)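 Seedlings grown about two weeks were sprayed at 40 psi with compound dispersed in 50/50 acetone/water plus 0.5% TWEEN 20, at about 0.0156 to 0.500 kg/ha. Plants were kept in the greenhouse and scored 4–5 weeks later on a 0–9 visual scale against untreated controls.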

ECHCG (Barnyardgrass) = assay: Preemergence herbicidal evaluation; type: in vivo, Echinochloa crus-galli; details: rated 4-5 weeks after treatment
Method in brief: as §2

MOOVA (Monochoria) = assay: Preemergence weed control under flooded paddy conditions; type: in vivo, Monochoria vaginalis; details: rated 3-4 weeks after treatment
Method in brief: as §1

ABUTH (Velvetleaf) = assay: Preemergence herbicidal evaluation; type: in vivo, Abutilon theophrasti; details: rated 4-5 weeks after treatment
Method in brief: as §2

CASOB (Sicklepod) [4] = assay: Preemergence herbicidal evaluation; type: in vivo, Cassia obtusifolia; details: rated 4-5 weeks after treatment
Method in brief: as §2

[5] = system: TRZAWR (Wheat, Winter, cv Riband); assay: Preemergence herbicidal evaluation; type: in vivo, Triticum aestivum; details: rated 4-5 weeks after treatment
Method in brief: as §2

[6] = system: IPOHE (Morningglory, Ivyleaf); assay: Postemergence herbicidal evaluation; type: in vivo, Ipomoea hederacea; details: postemergence
Method in brief: as §3

CASOB (Sicklepod) [7] = assay: Postemergence herbicidal evaluation; type: in vivo, Cassia obtusifolia; details: postemergence
Method in brief: as §3

ZEAMX (Corn, Field) = assay: Preemergence herbicidal evaluation; type: in vivo, Zea mays; details: rated 4-5 weeks after treatment
Method in brief: as §2

GALAP (Galium) = assay: Postemergence herbicidal evaluation; type: in vivo, Galium aparine; details: postemergence
Method in brief: as §3

CCOC(=O)CN1C(=O)C(C)SC1=Nc1cc(-n2c(=O)cc(C(F)(F)F)n(C)c2=O)c(F)cc1Cl (stereo not drawn) [Compound 12]
4.0: Herbicidal rating SAGPY ([1]; 0.1250 kg/ha) | ZEAMX preemergence herbicidal rating (ZEAMX (Corn, Field); rate 0.0156 kg/ha)
8.5: ZEAMX preemergence herbicidal rating (ZEAMX (Corn, Field); rate 0.2500 kg/ha)
3.5: GLXMAW preemergence herbicidal rating ([3]; rate 0.0625 kg/ha)
6.0: ECHCG preemergence herbicidal rating (ECHCG (Barnyardgrass); rate 0.0625 kg/ha) | CASOB preemergence herbicidal rating (CASOB (Sicklepod) [4]; rate 0.2500 kg/ha)
7.0: AMBEL herbicidal rating (AMBEL (Ragweed, Common); rate 0.0156 kg/ha) | AMBEL herbicidal rating (AMBEL (Ragweed, Common); rate 0.0625 kg/ha) | CASOB herbicidal rating (CASOB (Sicklepod) [7]; rate 0.0625 kg/ha) | GALAP herbicidal rating (GALAP (Galium); rate 0.0625 kg/ha)
2.0: GLXMAW preemergence herbicidal rating ([3]; rate 0.0313 kg/ha) | ECHCG preemergence herbicidal rating (ECHCG (Barnyardgrass); rate 0.0156 kg/ha)
3.0: CASOB herbicidal rating (CASOB (Sicklepod) [7]; rate 0.0313 kg/ha) | GALAP herbicidal rating (GALAP (Galium); rate 0.0156 kg/ha)
0.0: Herbicidal rating CYPIR (CYPIR (Rice Flatsedge); rate 0.0313 kg/ha) | Herbicidal rating CYPIR (CYPIR (Rice Flatsedge); rate 0.0625 kg/ha) | Herbicidal rating CYPIR (CYPIR (Rice Flatsedge); rate 0.2500 kg/ha) | Herbicidal rating SAGPY ([1]; 0.0313 kg/ha) | Herbicidal rating SAGPY ([1]; 0.2500 kg/ha) | CASOB preemergence herbicidal rating (CASOB (Sicklepod) [4]; rate 0.0156 kg/ha) | CASOB preemergence herbicidal rating (CASOB (Sicklepod) [4]; rate 0.0313 kg/ha) | TRZAWR preemergence herbicidal rating ([5]; rate 0.0156 kg/ha) | CASOB herbicidal rating (CASOB (Sicklepod) [7]; rate 0.0156 kg/ha)
9.0: IPOHE preemergence herbicidal rating ([2]; rate 0.0313 kg/ha) | IPOHE preemergence herbicidal rating ([2]; rate 0.0625 kg/ha) | IPOHE preemergence herbicidal rating ([2]; rate 0.1250 kg/ha) | IPOHE preemergence herbicidal rating ([2]; rate 0.2500 kg/ha) | GLXMAW preemergence herbicidal rating ([3]; rate 0.2500 kg/ha) | AMBEL herbicidal rating (AMBEL (Ragweed, Common); rate 0.0313 kg/ha) | AMBEL herbicidal rating (AMBEL (Ragweed, Common); rate 0.1250 kg/ha) | ECHCG preemergence herbicidal rating (ECHCG (Barnyardgrass); rate 0.1250 kg/ha) | ECHCG preemergence herbicidal rating (ECHCG (Barnyardgrass); rate 0.2500 kg/ha) | Herbicidal rating MOOVA (MOOVA (Monochoria); 0.0313 kg/ha) | Herbicidal rating MOOVA (MOOVA (Monochoria); 0.0625 kg/ha) | Herbicidal rating MOOVA (MOOVA (Monochoria); 0.1250 kg/ha) | Herbicidal rating MOOVA (MOOVA (Monochoria); 0.2500 kg/ha) | ABUTH preemergence herbicidal rating (ABUTH (Velvetleaf); rate 0.0313 kg/ha) | ABUTH preemergence herbicidal rating (ABUTH (Velvetleaf); rate 0.0625 kg/ha) | ABUTH preemergence herbicidal rating (ABUTH (Velvetleaf); rate 0.1250 kg/ha) | ABUTH preemergence herbicidal rating (ABUTH (Velvetleaf); rate 0.2500 kg/ha) | IPOHE herbicidal rating ([6]; rate 0.0156 kg/ha) | IPOHE herbicidal rating ([6]; rate 0.0313 kg/ha) | IPOHE herbicidal rating ([6]; rate 0.0625 kg/ha) | IPOHE herbicidal rating ([6]; rate 0.1250 kg/ha) | CASOB herbicidal rating (CASOB (Sicklepod) [7]; rate 0.1250 kg/ha)
1.0: Herbicidal rating CYPIR (CYPIR (Rice Flatsedge); rate 0.1250 kg/ha) | Herbicidal rating SAGPY ([1]; 0.0625 kg/ha) | TRZAWR preemergence herbicidal rating ([5]; rate 0.0313 kg/ha)
1.5: GLXMAW preemergence herbicidal rating ([3]; rate 0.0156 kg/ha)
7.5: ABUTH preemergence herbicidal rating (ABUTH (Velvetleaf); rate 0.0156 kg/ha)
4.5: IPOHE preemergence herbicidal rating ([2]; rate 0.0156 kg/ha) | CASOB preemergence herbicidal rating (CASOB (Sicklepod) [4]; rate 0.0625 kg/ha) | CASOB preemergence herbicidal rating (CASOB (Sicklepod) [4]; rate 0.1250 kg/ha)
5.5: ZEAMX preemergence herbicidal rating (ZEAMX (Corn, Field); rate 0.0625 kg/ha)
5.0: ECHCG preemergence herbicidal rating (ECHCG (Barnyardgrass); rate 0.0313 kg/ha) | TRZAWR preemergence herbicidal rating ([5]; rate 0.0625 kg/ha) | ZEAMX preemergence herbicidal rating (ZEAMX (Corn, Field); rate 0.0313 kg/ha) | GALAP herbicidal rating (GALAP (Galium); rate 0.0313 kg/ha)
8.0: TRZAWR preemergence herbicidal rating ([5]; rate 0.1250 kg/ha) | TRZAWR preemergence herbicidal rating ([5]; rate 0.2500 kg/ha) | GALAP herbicidal rating (GALAP (Galium); rate 0.1250 kg/ha)
6.5: GLXMAW preemergence herbicidal rating ([3]; rate 0.1250 kg/ha) | ZEAMX preemergence herbicidal rating (ZEAMX (Corn, Field); rate 0.1250 kg/ha)
